Results published in ChEMBL document CHEMBL5352429, “Designed symmetrical β-hairpin peptides for treating multidrug-resistant salmonella typhimurium infections” (Eur J Med Chem, 2022).
In brackets after ≈: the same amount, converted by molar mass. Activity calls are given as the source filed them. The calls are words filed in the database; no cut-off is given here. Peptide text beside a SMILES is read from it.

Tests used:
[1] = system: Staphylococcus epidermidis; test: Antibacterial activity against methicillin-resistant Staphylococcus epidermidis ATCC 12228 incubated overnight by standard microtiter dilution method; assay type: functional
[2] = system: Escherichia coli; test: Antibacterial activity against Escherichia coli O157:H7 CICC 21530 incubated overnight by standard microtiter dilution method; assay type: functional
[3] = system: Staphylococcus aureus; test: Antibacterial activity against Staphylococcus aureus ATCC 29213 incubated overnight by standard microtiter dilution method; assay type: functional
[4] = system: RAW264.7; test: Inhibition of LPS-stimulated IL-8 production in mouse RAW264.7 cells at 1 to 128 ug/ml incubated for 24 hrs by ELISA analysis; assay type: functional, cell-based; conditions: dose 1-128 µg/ml
[5] = system: Salmonella enterica subsp. enterica serovar Paratyphi B; test: Antibacterial activity against Salmonella paratyphi B CICC 21495 incubated overnight by standard microtiter dilution method; assay type: functional
[6] = system: Salmonella typhimurium; test: Antibacterial activity against Salmonella typhimurium DT104 ATCC 700408 incubated overnight by standard microtiter dilution method; assay type: functional, Salmonella enterica subsp. enterica serovar Typhimurium; conditions: Salmonella enterica
[7] = system: Salmonella paratyphi; test: Antibacterial activity against Salmonella paratyphi A CICC 21501 incubated overnight by standard microtiter dilution method; assay type: functional, Salmonella enterica subsp. enterica serovar Paratyphi A; conditions: Salmonella enterica
[8] = system: RAW264.7; test: Inhibition of LPS-stimulated TNF-alpha production in mouse RAW264.7 cells at 1 to 128 ug/ml incubated for 24 hrs by ELISA analysis; assay type: functional, cell-based; conditions: dose 1-128 µg/ml
[9] = system: RAW264.7; test: Inhibition of LPS-stimulated NO production in mouse RAW264.7 cells incubated for 24 hrs by Griess reagent based analysis; assay type: functional, cell-based; conditions: dose 1-128 µg/ml
[10] = system: Salmonella typhimurium; test: Antibacterial activity against Salmonella typhimurium CICC 21913 incubated overnight by standard microtiter dilution method; assay type: functional, Salmonella enterica subsp. enterica serovar Typhimurium; conditions: Salmonella enterica
[11] = Antibacterial activity against Salmonella enterica subsp. enterica serovar Choleraesuis CICC 21493 incubated overnight by standard microtiter dilution method; assay type: functional
[12] = Antibacterial activity against Salmonella blockley CICC 21489 incubated overnight by standard microtiter dilution method; assay type: functional, Salmonella enterica subsp. enterica serovar Blockley; conditions: Salmonella enterica
[13] = Antibacterial activity against Salmonella wandsworth CICC 21504 incubated overnight by standard microtiter dilution method; assay type: functional, Salmonella enterica subsp. enterica serovar Wandsworth; conditions: Salmonella enterica
[14] = system: Salmonella typhimurium; test: Antibacterial activity against Salmonella typhimurium DT104 in the presence of CaCl2 by MH broth based assay; assay type: functional, Salmonella enterica subsp. enterica serovar Typhimurium; conditions: Salmonella enterica
[15] = Antibacterial activity against Salmonella paratyphi C CICC 21512 incubated overnight by standard microtiter dilution method; assay type: functional, Salmonella enterica subsp. enterica serovar Paratyphi C; conditions: Salmonella enterica
[16] = system: Salmonella typhimurium; test: Antibacterial activity against Salmonella typhimurium DT104 in the presence of NH4Cl by MH broth based assay; assay type: functional, Salmonella enterica subsp. enterica serovar Typhimurium; conditions: Salmonella enterica
[17] = system: Salmonella typhimurium; test: Antibacterial activity against Salmonella typhimurium DT104 in the presence 50% inactivated mouse serum by MH broth based assay; assay type: functional, Salmonella enterica subsp. enterica serovar Typhimurium; conditions: Salmonella enterica
[18] = system: Salmonella typhimurium; test: Antibacterial activity against Salmonella typhimurium DT104 in the presence of KCl by MH broth based assay; assay type: functional, Salmonella enterica subsp. enterica serovar Typhimurium; conditions: Salmonella enterica
[19] = Antibacterial activity against Salmonella enterica subsp. enterica serovar Choleraesuis ATCC 13312 incubated overnight by standard microtiter dilution method; assay type: functional
[20] = system: Salmonella enteritidis; test: Antibacterial activity against Salmonella enteritidis CICC 21527 incubated overnight by standard microtiter dilution method; assay type: functional, Salmonella enterica subsp. enterica serovar Enteritidis; conditions: Salmonella enterica
[21] = system: Salmonella typhimurium; test: Antibacterial activity against Salmonella typhimurium CICC 21483 incubated overnight by standard microtiter dilution method; assay type: functional, Salmonella enterica subsp. enterica serovar Typhimurium; conditions: Salmonella enterica
[22] = system: Salmonella typhimurium; test: Antibacterial activity against Salmonella typhimurium DT104 in the presence of NaCl by MH broth based assay; assay type: functional, Salmonella enterica subsp. enterica serovar Typhimurium; conditions: Salmonella enterica
[23] = Antibacterial activity against Salmonella dublin CICC 21497 incubated overnight by standard microtiter dilution method; assay type: functional, Salmonella enterica subsp. enterica serovar Dublin; conditions: Salmonella enterica
[24] = system: Erythrocyte; test: Hemolytic activity in human Red blood cells assessed as hemolysis incubated for 1 hrs by absorbance based microplate reader analysis; assay type: toxicity, cell-based
[25] = system: Staphylococcus aureus; test: Antibacterial activity against methicillin-resistant Staphylococcus aureus ATCC 43300 incubated overnight by standard microtiter dilution method; assay type: functional
[26] = system: RAW264.7; test: Inhibition of LPS-stimulated IL-1beta production in mouse RAW264.7 cells at 1 to 128 ug/ml incubated for 24 hrs by ELISA analysis; assay type: functional, cell-based; conditions: dose 1-128 µg/ml
[27] = system: Salmonella typhimurium; test: Antibacterial activity against Salmonella typhimurium DT104 in the presence 25% inactivated mouse serum by MH broth based assay; assay type: functional, Salmonella enterica subsp. enterica serovar Typhimurium; conditions: Salmonella enterica
[28] = system: Candida albicans; test: Antifungal activity against Candida albicans ATCC 10231 incubated overnight by standard microtiter dilution method; assay type: functional
[29] = system: Salmonella typhimurium; test: Antibacterial activity against Salmonella typhimurium DT104 in the presence of FeCl3 by MH broth based assay; assay type: functional, Salmonella enterica subsp. enterica serovar Typhimurium; conditions: Salmonella enterica
[30] = Hemolytic activity in human Red blood cells assessed as hemolysis at 128 ug/ml incubated for 1 hrs by absorbance based microplate reader analysis relative to control; assay type: toxicity, cell-based, Erythrocyte; conditions: red blood cells (erythrocytes), at 128 µg/mL, read-out: Activity
[31] = system: Enterococcus faecalis; test: Antibacterial activity against Enterococcus faecalis ATCC 29212 incubated overnight by standard microtiter dilution method; assay type: functional
[32] = system: Lipopolysaccharide (LPS); test: Displacement of BODIPY-TR-cadaverine from Salmonella typhimurium LPS assessed as increase in fluorescence intensity by fluorescence spectrophotometric analysis; conditions: Salmonella enterica subsp. enterica serovar Typhimurium; dose 0.25-8 µg/ml
[33] = system: Salmonella typhimurium; test: Antibacterial activity against Salmonella typhimurium DT104 in the presence of MgCl2 by MH broth based assay; assay type: functional, Salmonella enterica subsp. enterica serovar Typhimurium; conditions: Salmonella enterica
[34] = system: Cell membrane; test: Disruption of membrane integrity in Salmonella typhimurium DT104 assessed as increase in fluorescence intensity at 0.5 to 2 times of MIC incubated for 15 mins by PI staining based flow cytometric analysis; assay type: subcellular; conditions: Salmonella enterica subsp. enterica serovar Typhimurium

Compound	MIC [1]	MIC [2]	MIC [3]	inhibition [4]	MIC [5]	MIC [6]	MIC [7]	inhibition [8]	inhibition [9]	MIC [10]	MIC [11]	MIC [12]	MIC [13]	MIC [14]	MIC [15]	MIC [16]	MIC [17]	MIC [18]	MIC [19]	MIC [20]	further results
C[C@@H](O)[C@H](NC(=O)[C@H](CS)NC(=O)[C@H](CCCCN)NC(=O)[C@@H](N)Cc1c[nH]c2ccccc12)C(=O)N[C@@H](CCCCN)C(=O)N[C@@H](CO)C(=O)NCC(=O)N[C@@H](CS)C(=O)N[C@@H](CCCCN)C(=O)N[C@@H](Cc1c[nH]c2ccccc12)C(N)=O (H-WKCTKSGCKW-NH2)	128 µg/mL (≈ 104 µM)	64 µg/mL (≈ 52.2 µM)	> 128 µg/mL	Active	16 µg/mL (≈ 13.1 µM)	> 128 µg/mL	128 µg/mL (≈ 104 µM)	Active	Dose-Dependent Effect	> 128 µg/mL	> 128 µg/mL	> 128 µg/mL	64 µg/mL (≈ 52.2 µM)	> 128 µg/mL	64 µg/mL (≈ 52.2 µM)	> 128 µg/mL	> 128 µg/mL	> 128 µg/mL	8 µg/mL (≈ 6.53 µM)	> 128 µg/mL	MIC [21]: > 128 µg/mL; MIC [22]: > 128 µg/mL; MIC [23]: > 128 µg/mL; MHC [24]: > 128 µg/mL; MIC [25]: > 128 µg/mL; inhibition [26]: Active; MIC [27]: > 128 µg/mL; MIC [28]: 64 µg/mL (≈ 52.2 µM); MIC [29]: > 128 µg/mL; hemolysis at 1 h, 128 ug/ml [30]: < 10%; MIC [31]: 128 µg/mL (≈ 104 µM); Activity [32]: Dose-Dependent Effect; MIC [33]: > 128 µg/mL
CC(C)[C@H](N)C(=O)N[C@@H](CCCCN)C(=O)N[C@@H](CS)C(=O)N[C@H](C(=O)N[C@@H](CCCCN)C(=O)N[C@@H](CO)C(=O)NCC(=O)N[C@@H](CS)C(=O)N[C@@H](CCCCN)C(=O)N[C@H](C(N)=O)C(C)C)[C@@H](C)O (H-VKCTKSGCKV-NH2)	> 128 µg/mL	> 128 µg/mL	> 128 µg/mL	Active	> 128 µg/mL	> 128 µg/mL	> 128 µg/mL	Active	Dose-Dependent Effect	> 128 µg/mL	> 128 µg/mL	> 128 µg/mL	> 128 µg/mL	> 128 µg/mL	> 128 µg/mL	> 128 µg/mL	> 128 µg/mL	> 128 µg/mL	> 128 µg/mL	> 128 µg/mL	MIC [21]: > 128 µg/mL; MIC [22]: > 128 µg/mL; MIC [23]: > 128 µg/mL; MHC [24]: > 128 µg/mL; MIC [25]: > 128 µg/mL; inhibition [26]: Active; MIC [27]: > 128 µg/mL; MIC [28]: > 128 µg/mL; MIC [29]: > 128 µg/mL; hemolysis at 1 h, 128 ug/ml [30]: < 10%; MIC [31]: 32 µg/mL (≈ 30.4 µM); Activity [32]: Dose-Dependent Effect; MIC [33]: > 128 µg/mL
CC(C)[C@H](NC(=O)CNC(=O)[C@H](CC(N)=O)NC(=O)CNC(=O)[C@H](Cc1ccc(O)cc1)NC(=O)[C@H](Cc1ccc(O)cc1)NC(=O)[C@@H](N)CCCCN)C(=O)N[C@@H](Cc1c[nH]cn1)C(=O)N[C@@H](CS)C(=O)N[C@H](C(=O)N[C@@H](CCCCN)C(=O)N[C@@H](CO)C(=O)NCC(=O)N[C@@H](CS)C(=O)N[C@@H](CO)C(=O)N[C@H](C(=O)N[C@@H](CC(N)=O)C(=O)N[C@@H](Cc1c[nH]c2ccccc12)C(N)=O)C(C)C)[C@@H](C)O (H-KYYGNGVHCTKSGCSVNW-NH2)	64 µg/mL (≈ 32 µM)	64 µg/mL (≈ 32 µM)	> 128 µg/mL	Active	32 µg/mL (≈ 16 µM)	> 128 µg/mL	128 µg/mL (≈ 63.9 µM)	Active	Dose-Dependent Effect	> 128 µg/mL	128 µg/mL (≈ 63.9 µM)	64 µg/mL (≈ 32 µM)	64 µg/mL (≈ 32 µM)	> 128 µg/mL	32 µg/mL (≈ 16 µM)	64 µg/mL	> 128 µg/mL	128 µg/mL	32 µg/mL (≈ 16 µM)	64 µg/mL (≈ 32 µM)	MIC [21]: 64 µg/mL (≈ 32 µM); MIC [22]: > 128 µg/mL; MIC [23]: 32 µg/mL (≈ 16 µM); MHC [24]: > 128 µg/mL; MIC [25]: > 128 µg/mL; Activity [34]: inactive; inhibition [26]: Active; MIC [27]: > 128 µg/mL; MIC [28]: 16 µg/mL (≈ 7.99 µM); MIC [29]: 64 µg/mL; hemolysis at 1 h, 128 ug/ml [30]: < 10%; MIC [31]: > 128 µg/mL; Activity [32]: Dose-Dependent Effect; MIC [33]: 128 µg/mL
